Reference: US9012428B2, “Uracyl spirooxetane nucleoside phosphoramidates” (Janssen Products, LP, priority 2010, dated 2015)

Experiments:
HIV = details: literature report; cited from earlier work
HCV type 1b replicon = test: HCV replicon assay (Huh-Luc, luciferase readout); format: cell-based; details: Hepatitis C virus, 72 h; Huh-Luc replicon cells, three days incubation, luciferase activity
Method: (§1) The in vitro antiviral activity against HCV of the compound of formula I was tested in a cellular HCV replicon system based on Lohmann et al. (1999) Science 285:110-113, with the further modifications described by Krieger et al. (2001) Journal of Virology 75: 4614-4624 (incorporated herein by reference), which is further exemplified in the examples section. This model, while not a complete infection model for HCV, is widely accepted as the most robust and efficient model of autonomous HCV RNA replication currently available. It will be appreciated that it is important to distinguish between compounds that specifically interfere with HCV functions from those that exert cytotoxic or cytostatic effects in the HCV replicon model, and as a consequence cause a decrease in HCV RNA or linked reporter enzyme concentration. […]
The replicon cells were plated in 384-well plates in the presence of the test and control compounds which were added in various concentrations. Following an incubation of three days, HCV replication was measured by assaying luciferase activity (using standard luciferase assay substrates and reagents and a Perkin Elmer ViewLux™ ultraHTS microplate imager). […] The inhibitory activity of the compound on luciferase activity was monitored on the Huh-Luc cells, enabling a dose-response curve for the test compound. […]

[1] = Cytotoxicity in Huh-7 cells; format: cell-based; details: human
Method: as §1, with “concentration. Assays are known in the field for the evaluation of cellular cytotoxicity based for example on the activity of mitochondrial enzymes using fluorogenic redox dyes such as resazurin. Furthermore, cellular counter screens exist for the evaluation of non-selective inhibition of linked reporter gene activity, such as firefly luciferase.” for “concentration.”

Row | Structure (SMILES) | activity against HIV (HIV) | EC50 (HCV type 1b replicon) [µM] | CC50 [1] [µM]
1 | Cc1cn([C@@H]2O[C@H](CO)[C@@H](O)[C@]23CCO3)c(=O)[nH]c1=O [1-(2-O,2-C-ethano-β-D-ribofuranosyl)thymine] | no activity was found |  | 
2 | O=c1ccn([C@@H]2O[C@H](CO)[C@@H](O)[C@]23CCO3)c(=O)[nH]1 [1-(2-O,2-C-ethano-β-D-ribofuranosyl)uracil] | no activity was found |  | 
3 | CCCCOC(=O)[C@H](C)N[P@](=O)(OC[C@H]1O[C@@H](n2ccc(=O)[nH]c2=O)[C@@]2(CCO2)[C@@H]1O)Oc1ccccc1 [Compound P1, butyl N—[(S)-{[(4R,5R,7R,8R)-5-(2,4-dioxo-3,4-dihydro-pyrimidin-1(2H)-yl)-8-hydroxy-1,6-dioxaspiro[3.4]oct-7-yl]methoxy}(phenoxy)-phosphoryl]-L-alaninate] |  | 2.51 | > 98
